These results are taken from patent US20180186814A1, “TRICYCLIC COMPOUND HAVING SULFINYL OR SULFONYL” (Shionogi & Co., Ltd., priority 2015, published 2018).

Holding throughout (type): cell-based
Test [1] concerns E. cloacae ATCC13047. Briefly: MIC by microbroth dilution (CLSI), strain No. 1. The settings on record: E. cloacae ATCC13047, AmpC, ceftazidime-resistant, cefepime-sensitive, cation-adjusted Mueller-Hinton broth; for MIC: Enterobacter cloacae, read-out: minimum inhibitory concentration (MIC), Strain No. 1. How it is done:
(§1) The minimum inhibitory concentration (MIC) was measured by the microbroth dilution method in accordance with the procedures recommended by CLSI (Clinical and Laboratory Standards Institute) using 1×10^5 CFU/mL as an inoculum dose and a cation-adjusted Mueller-Hinton broth as a test medium.
(§2) The strains used are as described in the table below.
For orientation: Dilution methods test growth across graded concentrations, often in twofold steps.

Test [2] has as its system E. coli SR09613. Briefly: MIC by microbroth dilution (CLSI), strain No. 6. The following applies: for minimum inhibitory concentration (MIC), Strain No. 6: E. coli SR09613, CMY-2 type, plasmid AmpC-producing strain, ceftazidime-resistant, cefepime-sensitive, cation-adjusted Mueller-Hinton broth; for MIC: Escherichia coli, SR09613, read-out: minimum inhibitory concentration (MIC), Strain No. 6. How it is done:
as §1, §2

Test [3] deals with E. cloacae SR36276. The test can be described thus: MIC by microbroth dilution (CLSI), strain No. 5. The settings on record: E. cloacae SR36276, AmpC, highly AmpC-producing strain, ceftazidime-resistant, cefepime-sensitive, cation-adjusted Mueller-Hinton broth; for MIC: Enterobacter cloacae, read-out: minimum inhibitory concentration (MIC), Strain No. 5. How it is done:
as §1, §2

Test [4] has as its system E. coli SR09616. The test can be described thus: MIC by microbroth dilution (CLSI), strain No. 7. The settings on record: for minimum inhibitory concentration (MIC), Strain No. 7: E. coli SR09616, CMY-2 type, plasmid AmpC-producing strain, ceftazidime-resistant, cefepime-sensitive, cation-adjusted Mueller-Hinton broth; for MIC: Escherichia coli, SR09616, read-out: minimum inhibitory concentration (MIC), Strain No. 7. How it is done:
as §1, §2

For test [5], the system named is K. pneumoniae SR01453. Briefly: MIC by microbroth dilution (CLSI), strain No. 3. The settings on record: K. pneumoniae SR01453, NDM-1, MBL-producing strain, carbapenem-resistant, cation-adjusted Mueller-Hinton broth; for MIC: Klebsiella pneumoniae, read-out: minimum inhibitory concentration (MIC), Strain No. 3. How it is done:
as §1, §2

In test [6] the test system is K. pneumoniae NCTC13443. Briefly: MIC by microbroth dilution (CLSI), strain No. 4. The following applies: K. pneumoniae NCTC13443, NDM-1, MBL-producing strain, carbapenem-resistant, cation-adjusted Mueller-Hinton broth; for MIC: Klebsiella pneumoniae, read-out: minimum inhibitory concentration (MIC), Strain No. 4. How it is done: as §1, §2

≈ marks a conversion by molar mass, not a printed value. Some results are limits rather than exact numbers.

`Nc1nc(/C(=N/OCS(=O)(=O)O)C(=O)N[C@@H]2C(=O)N3[C@@H]2[S@@+](O)C[C@@H]2CC(=O)O[C@@]23C(=O)O)cs1` [Compound I-047]: the “minimum inhibitory concentration (MIC), Strain No. 1” value in test [1] is 0.25 µg/mL. Also, in test [2], the “minimum inhibitory concentration (MIC), Strain No. 6” value turned out to be 0.063 µg/mL. Further, in test [3], the “minimum inhibitory concentration (MIC), Strain No. 5” value was 0.25 µg/mL. For the same molecule, in test [4], the “minimum inhibitory concentration (MIC), Strain No. 7” value came to 0.25 µg/mL. The “minimum inhibitory concentration (MIC), Strain No. 3” value in test [5] is 0.25 µg/mL. Also, in test [6], the “minimum inhibitory concentration (MIC), Strain No. 4” value was found to be 2 µg/mL.

On to `CONC(=O)CO/N=C(\C(=O)N[C@@H]1C(=O)N2[C@@H]1[S+](O)C[C@@H]1CC(=O)O[C@@]12C(=O)O)c1csc(N)n1` (stereo partly drawn) [Compound I-048], for which the MIC in test [1] was determined as 0.25 µg/mL; in test [2] it was 0.125 µg/mL; in test [3] it was 1 µg/mL; in test [4], 0.5 µg/mL; in test [5] it was 0.125 µg/mL; in test [6] it was 4 µg/mL.

With `Nc1nc(/C(=N/OCC(=O)NO)C(=O)N[C@@H]2C(=O)N3[C@@H]2[S+](O)C[C@@H]2CC(=O)O[C@@]23C(=O)O)cs1` (stereo partly drawn) [Compound I-049], the “minimum inhibitory concentration (MIC), Strain No. 1” value in test [1] was found to be 0.125 µg/mL. Further, in test [2], the “minimum inhibitory concentration (MIC), Strain No. 6” value stood at 0.063 µg/mL. In test [3], the “minimum inhibitory concentration (MIC), Strain No. 5” value was found to be 0.5 µg/mL. Moreover, in test [4], the “minimum inhibitory concentration (MIC), Strain No. 7” value turned out to be 0.5 µg/mL. For the same molecule, the “minimum inhibitory concentration (MIC), Strain No. 3” value in test [5] amounted to 0.063 µg/mL. Further, the “minimum inhibitory concentration (MIC), Strain No. 4” value in test [6] was 2 µg/mL.

Take `Nc1nc(/C(=N/OC[C@H](O)CO)C(=O)N[C@@H]2C(=O)N3[C@@H]2[S@@+]([O-])C[C@@H]2CC(=O)O[C@@]23C(=O)O)cs1` [Compound I-050]: the MIC in test [1] is 0.5 µg/mL (≈ 0.966 µM); in test [2], 0.5 µg/mL (≈ 0.966 µM); in test [3], 1 µg/mL (≈ 1.93 µM); in test [4], 4 µg/mL (≈ 7.73 µM); in test [5], 0.5 µg/mL (≈ 0.966 µM); in test [6], 4 µg/mL (≈ 7.73 µM).

Regarding `Nc1nc(/C(=N/OC(CO)CO)C(=O)N[C@@H]2C(=O)N3[C@@H]2[S@@+]([O-])C[C@@H]2CC(=O)O[C@@]23C(=O)O)cs1` [Compound I-052], the MIC was 0.063 µg/mL (≈ 0.122 µM) in test [1]; not above 0.031 µg/mL in test [2]; 0.125 µg/mL (≈ 0.242 µM) in test [3]; 0.063 µg/mL (≈ 0.122 µM) in test [4]; not above 0.031 µg/mL in test [5]; 0.5 µg/mL (≈ 0.966 µM) in test [6].
